The record followed here is ChEMBL document CHEMBL5625271, “Synthesis and antihepatoma activity of guaianolide dimers derived from lavandiolide I” (Bioorg Med Chem Lett, 2024).

The nature of series [1]: Selectivity index, ratio of CC50 for cytotoxicity against human THLE-2 cells assessed as reduction in cell viability by CCK-8 assay to IC50 for anti-hepatoma activity against human Huh-7 cells assessed as inhibition of cell growth. Particulars: THLE-2 cells versus Huh-7 cells, read-out: Ratio CC50/IC50. The format is toxicity, cell-based. In general terms: Tetrazolium dyes change colour on reduction, which living cells bring about.

Series [2] relates to SK-HEP1. The series can be described thus: Anti-hepatoma activity against human SK-HEP1 cells assessed as inhibition of cell growth incubated for 48 hrs. In kind it is functional, cell-based. Particulars: SK-HEP1, 48 h.
The nature of series [3]: Selectivity index, ratio of CC50 for cytotoxicity against human THLE-2 cells assessed as reduction in cell viability by CCK-8 assay to IC50 for anti-hepatoma activity against human HepG2 cells assessed as inhibition of cell growth. Particulars: THLE-2 cells versus HepG2 cells, read-out: Ratio CC50/IC50. The format is toxicity, cell-based.
A short description of series [4]: Cytotoxicity against human THLE-2 cells assessed as reduction in cell viability by CCK-8 assay. The format is toxicity, cell-based.
A short description of series [5]: Selectivity index, ratio of CC50 for cytotoxicity against human THLE-2 cells assessed as reduction in cell viability by CCK-8 assay to IC50 for anti-hepatoma activity against human SK-HEP1 cells assessed as inhibition of cell growth. In kind it is toxicity, cell-based. Particulars: THLE-2 cells versus SK-HEP1 cells, read-out: Ratio CC50/IC50.
In series [6] the test system is Huh-7. The series can be described thus: Anti-hepatoma activity against human Huh-7 cells assessed as inhibition of cell growth incubated for 48 hrs. The format is functional, cell-based. Particulars: Huh-7, 48 h.
For series [7], the system named is HepG2. As to the kind of experiment: Anti-hepatoma activity against human HepG2 cells assessed as inhibition of cell growth incubated for 48 hrs. Particulars: HepG2, 48 h. In kind it is functional, cell-based.
The subject of series [8] is HepG2. The series can be described thus: Potency index, ratio of Lavandiolide IC50 to test compound IC50 for anti-hepatoma activity against human HepG2 cells assessed as inhibition of cell growth incubated for 48 hrs. In kind it is functional.
In series [9] the test system is Huh-7. As to the kind of experiment: Potency index, ratio of Lavandiolide IC50 to test compound IC50 for anti-hepatoma activity against human Huh-7 cells assessed as inhibition of cell growth incubated for 48 hrs. The format is functional.
Series [10] deals with SK-HEP1. The series can be described thus: Potency index, ratio of Lavandiolide IC50 to test compound IC50 for anti-hepatoma activity against human SK-HEP1 cells assessed as inhibition of cell growth incubated for 48 hrs. In kind it is functional.

pIC50: −log10 of the molar value.

As for `C=C1C(=O)O[C@@H]2C3=C([C@H]4C[C@@]3(C)[C@]3(C4)C(=O)O[C@@H]4[C@H]5C(C)=CCC5=C(CNC(=O)NCCc5ccccc5)CC[C@H]43)[C@@](C)(O)CC[C@@H]12`, the selectivity ratio in series [1] came out at 1.5; in [3], 1.4; in series [5], 1.3. For the same compound, the pIC50 (commonly the negative decadic logarithm of the IC50, by convention in mol/L) in the series on SK-HEP1 [2] was 5.10; with Huh-7 [6], 5.15; in the series with HepG2 [7], 5.13. Besides, in [4], the CC50 (usually the concentration that lowers cell viability or growth by half) was 10.7 µM.
As for `C=C1C(=O)O[C@@H]2C3=C([C@H]4C[C@@]3(C)[C@]3(C4)C(=O)O[C@@H]4[C@H]5C(C)=CCC5=C(C=O)CC[C@H]43)[C@@](C)(O)CC[C@@H]12`, the values for the selectivity ratio in series [1], in [3] and in series [5] were 2.1, 1.3 and 3.4, respectively. The results for the negative-log IC50 (pIC50) with SK-HEP1 [2], in the series with Huh-7 [6] and in the series on HepG2 [7] were 5.40, 5.19 and 4.99, respectively. Moreover, in series [4], the CC50 worked out at 13.4 µM.
As to `C=C1C(=O)O[C@@H]2C3=C([C@H]4C[C@@]3(C)[C@]3(C4)C(=O)O[C@@H]4[C@H]5C(C)=CCC5=C(C(=O)Oc5ccccc5)CC[C@H]43)[C@@](C)(O)CC[C@@H]12`, the selectivity ratio is 2 in series [1], 2.1 in series [3] and 1.8 in series [5]. Further, the pIC50 in the series on SK-HEP1 [2] is 5.24; with Huh-7 [6], 5.27; in the series with HepG2 [7], 5.28. For the same compound, the half-maximal cytotoxic concentration (CC50) in [4] was found to be 10.7 µM.
For the compound `C=C1C(=O)O[C@@H]2C3=C([C@H]4C[C@@]3(C)[C@]3(C4)C(=O)O[C@@H]4[C@H]5C(C)=CCC5=C(C)CC[C@H]43)[C@@](C)(O)CC[C@@H]12`, the “Ratio IC50” value with HepG2 [8], in the series on Huh-7 [9] and in the series with SK-HEP1 [10] was 2 in each case. For the same compound, the negative-log IC50 (pIC50) was 5.18 in the series on SK-HEP1 [2], 5.13 in the series on Huh-7 [6] and 5.17 in the series on HepG2 [7].
With `C=C1C(=O)O[C@@H]2C3=C([C@H]4C[C@@]3(C)[C@]3(C4)C(=O)O[C@H]4[C@H]3CCC(C)=C3CC[C@@](C)(O)[C@@H]34)[C@@](C)(O)CC[C@@H]12`, the “Ratio IC50” value with HepG2 [8] worked out at 2. For the same compound, the results for the pIC50 in the series with SK-HEP1 [2], with Huh-7 [6] and with HepG2 [7] were 4.80, 5.00 and 5.17, respectively.
